Experimental data: US10894784B2, “Heteroarylbenzimidazole compounds” (BAYER PHARMA AKTIENGESELLSCHAFT, priority 2015, dated 2021)

target: TBK1 (Homo sapiens (Human), UniProt Q9UHD2); test: TBK1 low ATP kinase assay (in vitro assay 1); format: biochemical; conditions: TBK1 low ATP kinase assay IC50, in vitro assay 1
Sequence (Q9UHD2 whole entry): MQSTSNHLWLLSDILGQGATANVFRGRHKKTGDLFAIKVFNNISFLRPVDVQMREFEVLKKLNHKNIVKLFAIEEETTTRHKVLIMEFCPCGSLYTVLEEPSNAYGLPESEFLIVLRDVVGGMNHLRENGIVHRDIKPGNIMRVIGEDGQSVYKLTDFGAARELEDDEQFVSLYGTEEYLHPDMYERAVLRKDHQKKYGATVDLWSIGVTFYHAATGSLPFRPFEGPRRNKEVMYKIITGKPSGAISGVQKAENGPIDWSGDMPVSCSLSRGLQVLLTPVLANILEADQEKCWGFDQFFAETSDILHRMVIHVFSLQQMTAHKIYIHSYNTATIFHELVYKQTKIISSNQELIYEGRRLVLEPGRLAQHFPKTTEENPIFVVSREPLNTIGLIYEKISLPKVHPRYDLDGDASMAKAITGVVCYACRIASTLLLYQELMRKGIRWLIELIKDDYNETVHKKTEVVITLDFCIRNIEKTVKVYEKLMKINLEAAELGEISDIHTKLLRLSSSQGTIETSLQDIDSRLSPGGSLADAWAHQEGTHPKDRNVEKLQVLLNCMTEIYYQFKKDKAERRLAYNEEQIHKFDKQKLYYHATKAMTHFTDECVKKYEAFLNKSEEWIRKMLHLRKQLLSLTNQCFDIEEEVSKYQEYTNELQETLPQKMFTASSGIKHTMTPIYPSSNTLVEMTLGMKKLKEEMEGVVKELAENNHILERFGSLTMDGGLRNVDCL

Compound	IC50 [nM]
CC(c1ccnc(Nc2nc3ccc(-c4cnn(CC5CC5)c4)cc3[nH]2)c1)N1CCN(C(=O)CC(F)(F)F)CC1 (single isomer, unassigned) [Example 39.02.02, 1-(4-{(1R or 1S)-1-[2-({6-[1-(cyclopropylmethyl)-1H-pyrazol-4-yl]-1H-benzimidazol-2-yl}amino)pyridin-4-yl]ethyl}piperazin-1-yl)-3,3,3-trifluoropropan-1-one]	1.8
O=C(CC(F)(F)F)N1CCN(Cc2ccnc(Nc3nc4ccc(-c5cnn(CC6CCC6)c5)cc4[nH]3)c2)CC1 [Example 59.02.01, 1-(4-{[2-({6-[1-(cyclobutylmethyl)-1H-pyrazol-4-yl]-1H-benzimidazol-2-yl}amino)pyridin-4-yl]methyl}piperazin-1-yl)-3,3,3-trifluoropropan-1-one]	7.56

same assay, conditions: in vitro assay 1, read-out: TBK1 low ATP kinase assay IC50

Compound	IC50 [nM]
CC(C)Oc1cc(-c2ccc3nc(Nc4cc(CN5CCN(C(=O)OC(C)(C)C)CC5)ccn4)[nH]c3c2)ncn1 [Example 160.01, tert-butyl 4-{[2-({6-[6-(propan-2-yloxy)pyrimidin-4-yl]-1H-benzimidazol-2-yl}amino)pyridin-4-yl]methyl}piperazine-1-carboxylate]	64
CC(c1ccnc(Nc2nc3ccc(-c4cn[nH]c4)cc3[nH]2)c1)N1CCN(C(=O)OC(C)(C)C)CC1 (single isomer, unassigned) [Example 57.01, tert-butyl 4-[(1R or 1S)-1-(2-{[6-(1H-pyrazol-4-yl)-1H-benzimidazol-2-yl]amino}pyridin-4-yl)ethyl]piperazine-1-carboxylate]	7.83
CCOc1cc(-c2ccc3nc(Nc4cc(CN5CCN(C(=O)CC(F)(F)F)CC5)ccn4)[nH]c3c2)ncn1 [Example 161.02, 1-{4-[(2-{[6-(6-ethoxypyrimidin-4-yl)-1H-benzimidazol-2-yl]amino}pyridin-4-yl)methyl]piperazin-1-yl}-3,3,3-trifluoropropan-1-one]	7.7
CC(c1ccnc(Nc2nc3ccc(-c4cc(OCC(F)(F)C(F)(F)F)ncn4)cc3[nH]2)c1)N1CCN(C(=O)[C@@H]2CC2(F)F)CC1 (single isomer, unassigned) [Example 166.05, ((1RS)-2,2-difluorocyclopropyl)(4-{(1R or 1S)-1-[2-({6-[6-(2,2,3,3,3-pentafluoropropoxy)pyrimidin-4-yl]-1H-benzimidazol-2-yl}amino)pyridin-4-yl]ethyl}piperazin-1-yl)methanone]	34.2
COc1c(C)ncnc1-c1ccc2nc(Nc3cc(C(C)N4CCN(C(=O)C5(C(F)(F)F)CC5)CC4)ccn3)[nH]c2c1 (stereo not drawn) [Example 83.05, {4-[(1R or IS)-1-(2-{[6-(5-methoxy-6-methylpyrimidin-4-yl)-1H-benzimidazol-2-yl]amino}pyridin-4-yl)ethyl]piperazin-1-yl}[1-(trifluoromethyl)cyclopropyl]methanone]	2.9
CC(c1ccnc(Nc2nc3ccc(-c4cc(OCC(F)(F)F)ncn4)cc3[nH]2)c1)N1CCN(C(=O)C2CC2(F)F)CC1 (single isomer, unassigned) [Example 119.05, ((1RS)-2,2-difluorocyclopropyl)(4-{(1R or 1S)-1-[2-({6-[6-(2,2,2-trifluoroethoxy)pyrimidin-4-yl]-1H-benzimidazol-2-yl}amino)pyridin-4-yl]ethyl}piperazin-1-yl)methanone]	6.35
CC(c1ccnc(Nc2nc3ccc(-c4cc(N(C)CC5CC5)ncn4)cc3[nH]2)c1)N1CCN(C(=O)C2(C(F)(F)F)CC2)CC1 (single isomer, unassigned) [Example 197.04, {4-[(1R or 1S)-1-{2-[(6-{6-[(cyclopropylmethyl)(methyl)amino]pyrimidin-4-yl}-1H-benzimidazol-2-yl)amino]pyridin-4-yl}ethyl]piperazin-1-yl}[1-(trifluoromethyl)cyclopropyl]methanone]	6.46
O=C(CC(F)(F)F)N1CCN(Cc2ccnc(Nc3nc4ccc(-c5cc(N6CCC6)ncn5)cc4[nH]3)c2)CC1 [Example 147.02, 1-(4-{[2-({6-[6-(azetidin-1-yl)pyrimidin-4-yl]-1H-benzimidazol-2-yl}amino)pyridin-4-yl]methyl}piperazin-1-yl)-3,3,3-trifluoropropan-1-one]	1.8
CNc1cc(-c2ccc3nc(Nc4cc(CN5CCN(C(=O)CC(F)(F)F)CC5)ccn4)[nH]c3c2)ncn1 [Example 150.02, 3,3,3-trifluoro-1-(4-{[2-({6-[6-(methylamino)pyrimidin-4-yl]-1H-benzimidazol-2-yl}amino)pyridin-4-yl]methyl}piperazin-1-yl)propan-1-one]	9.6
COc1c(-c2ccc3nc(Nc4cc(C(C)N5CCN(C(=O)OC(C)(C)C)CC5)ccn4)[nH]c3c2)ncnc1N1CCC1 (single isomer, unassigned) [Example 111.01, tert-butyl 4-{(1R or 1S)-1-[2-({6-[6-(azetidin-1-yl)-5-methoxypyrimidin-4-yl]-1H-benzimidazol-2-yl}amino)pyridin-4-yl]ethyl}piperazine-1-carboxylate]	2.6
O=C(CC(F)(F)F)N1CCN(Cc2ccnc(Nc3nc4ccc(-c5ccnc(N6CCCC6)n5)cc4[nH]3)c2)CC1 [Example 177.02, 3,3,3-trifluoro-1-(4-{[2-({6-[2-(pyrrolidin-1-yl)pyrimidin-4-yl]-1H-benzimidazol-2-yl}amino)pyridin-4-yl]methyl}piperazin-1-yl)propan-1-one]	74.5
CCOc1nccc(-c2ccc3nc(Nc4cc(C(C)N5CCN(C(=O)CC(F)(F)F)CC5)ccn4)[nH]c3c2)n1 (single isomer, unassigned) [Example 26.03.01.A, 1-{4-[(1R or 1S)-1-(2-{[6-(2-ethoxypyrimidin-4-yl)-1H-benzimidazol-2-yl]amino}pyridin-4-yl)ethyl]piperazin-1-yl}-3,3,3-trifluoropropan-1-one]	2.98

Other lines, results leading:

IC50 [nM]	Compound
47	COc1cnc(OCC2CC2)nc1-c1ccc2nc(Nc3cc(CN4CCN(C(=O)CC(F)(F)F)CC4)ccn3)[nH]c2c1 [Example 64.01.03, 1-(4-{[2-({6-[2-(cyclopropylmethoxy)-5-methoxypyrimidin-4-yl]-1H-benzimidazol-2-yl}amino)pyridin-4-yl]methyl}piperazin-1-yl)-3,3,3-trifluoropropan-1-one]
360	N#Cc1cnccc1-c1ccc2nc(Nc3cc(CN4CCN(C(=O)C5CC5)CC4)ccn3)[nH]c2c1 [Example 103.01, 4-{2-[(4-{[4-(cyclopropylcarbonyl)piperazin-1-yl]methyl}pyridin-2-yl)amino]-1H-benzimidazol-6-yl}pyridine-3-carbonitrile]
7.6	CN(c1cc(-c2ccc3nc(Nc4cc(CN5CCN(C(=O)C6CC6)CC5)ccn4)[nH]c3c2)ncn1)C1CC1 [Example 157.03, cyclopropyl[4-({2-[(6-{6-[cyclopropyl(methyl)amino]pyrimidin-4-yl}-1H-benzimidazol-2-yl)amino]pyridin-4-yl}methyl)piperazin-1-yl]methanone]
53	Cc1cc(-c2ccc3nc(Nc4cc(CN5CCN(C(=O)OC(C)(C)C)CC5)ccn4)[nH]c3c2)cc(C#N)n1 [Example 136.01, tert-butyl 4-[(2-{[6-(2-cyano-6-methylpyridin-4-yl)-1H-benzimidazol-2-yl]amino}pyridin-4-yl)methyl]piperazine-1-carboxylate]
38	COc1cncnc1-c1ccc2nc(Nc3cc(CN4CCN(S(=O)(=O)N(C)C)CC4)ccn3)[nH]c2c1 [Example 35.01.15, 4-[(2-{[6-(5-methoxypyrimidin-4-yl)-1H-benzimidazol-2-yl]amino}pyridin-4-yl)methyl]-N,N-dimethylpiperazine-1-sulfonamide]
576	CC(C)(C)OC(=O)N1CCN(Cc2ccnc(Nc3nc4ccc(-c5ncccn5)cc4[nH]3)c2)CC1 [Example 180.01, tert-butyl 4-[(2-{[6-(pyrimidin-2-yl)-1H-benzimidazol-2-yl]amino}pyridin-4-yl)methyl]piperazine-1-carboxylate]
1020	CSc1ncc(-c2ccc3nc(Nc4cc(CN5CCN(C(=O)CC6CC6)CC5)ccn4)[nH]c3c2)cn1 [Example 45.05.02, 2-cyclopropyl-1-(4-{[2-({6-[2-(methylsulfanyl)pyrimidin-5-yl]-1H-benzimidazol-2-yl}amino)pyridin-4-yl]methyl}piperazin-1-yl)ethanone]
353	O=C(CC(F)(F)F)N1CCN(Cc2ccnc(Nc3nc4ccc(-c5ccsc5Cl)cc4[nH]3)c2)CC1 [Example 175.02, 1-{4-[(2-{[6-(2-chlorothiophen-3-yl)-1H-benzimidazol-2-yl]amino}pyridin-4-yl)methyl]piperazin-1-yl}-3,3,3-trifluoropropan-1-one]
1260	CN(C)c1ncnc(-c2ccc3nc(Nc4cc(CN5CCN(C(=O)C6CC6)CC5)ccn4)[nH]c3c2)c1Cl [Example 179.03, (4-{[2-({6-[5-chloro-6-(dimethylamino)pyrimidin-4-yl]-1H-benzimidazol-2-yl}amino)pyridin-4-yl]methyl}piperazin-1-yl)(cyclopropyl)methanone]
19.3	COc1cnccc1-c1ccc2nc(Nc3cc(CN4CCN(C(=O)C5CC5)CC4)ccn3)[nH]c2c1 [Example 04.03, cyclopropyl{4-[(2-{[6-(3-methoxypyridin-4-yl)-1H-benzimidazol-2-yl]amino}pyridin-4-yl)methyl]piperazin-1-yl}methanone]
124	O=C(CC(F)(F)F)N1CCN(Cc2ccnc(Nc3nc4ccc(-c5cnc(Cl)nc5)cc4[nH]3)c2)CC1 [Example 45.02.01, 1-{4-[(2-{[6-(2-chloropyrimidin-5-yl)-1H-benzimidazol-2-yl]amino}pyridin-4-yl)methyl]piperazin-1-yl}-3,3,3-trifluoropropan-1-one]
624	COc1cnc(C(=O)N(C)C)cc1-c1ccc2nc(Nc3cc(CN4CCN(C(=O)C5CC5)CC4)ccn3)[nH]c2c1 [Example 08.01, 4-{2-[(4-{[4-(cyclopropylcarbonyl)piperazin-1-yl]methyl}pyridin-2-yl)amino]-1H-benzimidazol-6-yl}-5-methoxy-N,N-dimethylpyridine-2-carboxamide]
890	Cc1nccc(-c2ccc3nc(Nc4cc(CN5CCN(C(=O)OC(C)(C)C)CC5)ccn4)[nH]c3c2)c1Cl [Example 130.01, tert-butyl 4-[(2-{[6-(3-chloro-2-methylpyridin-4-yl)-1H-benzimidazol-2-yl]amino}pyridin-4-yl)methyl]piperazine-1-carboxylate]
